Data reported in PubChem BioAssay (NCI).
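Values below derive from 48-hour exposures of cells grown in 96-well plates, with endpoints linearly interpolated between the two concentrations bracketing the appropriate inhibition level. GI50 = concentration required for 50% inhibition of growth. At the TGI there is no net growth.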

Legend:
Assay in all cases: NCI tumour cell line growth inhibition, 48 h
HCT-15 colon = test system: HCT-15 colon
OVCAR-4 ovarian = test system: OVCAR-4 ovarian
OVCAR-5 ovarian = test system: OVCAR-5 ovarian
T-47D breast = test system: T-47D breast
MALME-3M melanoma = test system: MALME-3M melanoma
CCRF-CEM leukemia = test system: CCRF-CEM leukemia
K-562 leukemia = test system: K-562 leukemia
HCT-116 colon = test system: HCT-116 colon
IGROV1 ovarian = test system: IGROV1 ovarian
TK-10 renal = test system: TK-10 renal
SF-295 CNS = test system: SF-295 CNS
786-0 renal = test system: 786-0 renal
HL-60(TB) leukemia = test system: HL-60(TB) leukemia

## Cc1nnc2n1-c1ccccc1C(=S)N1CSCC21 (configuration not stated)
HCT-15 colon
  TGI: > 100 µM
OVCAR-4 ovarian
  TGI: > 100 µM
OVCAR-5 ovarian
  TGI: > 100 µM
T-47D breast
  TGI: > 100 µM
MALME-3M melanoma
  TGI: > 100 µM
CCRF-CEM leukemia
  TGI: > 100 µM
K-562 leukemia
  TGI: > 100 µM
HCT-116 colon
  TGI: > 100 µM
IGROV1 ovarian
  TGI: > 100 µM
TK-10 renal
  TGI: > 100 µM
SF-295 CNS
  TGI: > 100 µM
786-0 renal
  TGI: > 100 µM

## CCN(CC)C(=S)SS(=O)(=O)c1ccc([N+](=O)[O-])cc1
HCT-15 colon
  GI50: 52.7 µM
  TGI: > 100 µM
OVCAR-4 ovarian
  GI50: 45.5 µM
  TGI: > 100 µM
OVCAR-5 ovarian
  TGI: > 100 µM
T-47D breast
  TGI: > 100 µM
MALME-3M melanoma
  TGI: 37.9 µM
K-562 leukemia
  TGI: > 100 µM
TK-10 renal
  GI50: 43.1 µM
  TGI: > 100 µM
SF-295 CNS
  GI50: 58.9 µM
  TGI: > 100 µM
786-0 renal
  TGI: 32.4 µM

## Cc1cccc2c1NC(=S)[C@@H]1CCCN1C2=O
HCT-15 colon
  TGI: > 100 µM
OVCAR-4 ovarian
  TGI: > 100 µM
OVCAR-5 ovarian
  TGI: > 100 µM
T-47D breast
  TGI: > 100 µM
MALME-3M melanoma
  TGI: > 100 µM
CCRF-CEM leukemia
  TGI: > 100 µM
K-562 leukemia
  TGI: > 100 µM
HCT-116 colon
  TGI: > 100 µM
IGROV1 ovarian
  TGI: > 100 µM
TK-10 renal
  TGI: > 100 µM
SF-295 CNS
  TGI: > 100 µM
786-0 renal
  TGI: > 100 µM

## O=S1C2=C(Cc3ccccc3)C(Cc3ccccc3)=C1CCc1cccc(c1)CC2
HCT-15 colon
  TGI: 30.5 µM
OVCAR-4 ovarian
  TGI: 21.4 µM
OVCAR-5 ovarian
  TGI: 35.5 µM
HL-60(TB) leukemia
  TGI: 59.8 µM
T-47D breast
  TGI: 44.8 µM
MALME-3M melanoma
  TGI: 32.5 µM
CCRF-CEM leukemia
  TGI: > 100 µM
K-562 leukemia
  TGI: > 100 µM
HCT-116 colon
  TGI: 21.5 µM
TK-10 renal
  TGI: 33.7 µM
SF-295 CNS
  TGI: 27.1 µM
786-0 renal
  TGI: 28.9 µM

## COCCOCCOC1=C(Cl)C(=O)c2c(O)ccc(O)c2C1=O
HCT-15 colon
  TGI: 3.42 µM
OVCAR-4 ovarian
  TGI: 4.36 µM
OVCAR-5 ovarian
  TGI: 22.6 µM
HL-60(TB) leukemia
  TGI: 1.89 µM
T-47D breast
  TGI: 6.64 µM
MALME-3M melanoma
  TGI: 3.34 µM
CCRF-CEM leukemia
  TGI: 45.1 µM
HCT-116 colon
  TGI: 2.46 µM
IGROV1 ovarian
  TGI: 7.37 µM
TK-10 renal
  TGI: 3.25 µM
SF-295 CNS
  TGI: 27.1 µM
786-0 renal
  TGI: 2.61 µM

## CN(CCc1ccc(N)cc1)[C@H]1CCCC[C@H]1N1CCCC1
HCT-15 colon
  TGI: > 100 µM
OVCAR-4 ovarian
  TGI: > 100 µM
OVCAR-5 ovarian
  TGI: > 100 µM
HL-60(TB) leukemia
  TGI: > 100 µM
T-47D breast
  TGI: > 100 µM
MALME-3M melanoma
  TGI: > 100 µM
K-562 leukemia
  TGI: > 100 µM
HCT-116 colon
  TGI: > 100 µM
IGROV1 ovarian
  TGI: > 100 µM
TK-10 renal
  TGI: > 100 µM
SF-295 CNS
  TGI: > 100 µM
786-0 renal
  TGI: > 100 µM

## N#Cc1ccc(OCc2nc3cc(C(F)(F)F)ccc3nc2-c2ccccc2)cc1
OVCAR-4 ovarian
  TGI: > 100 µM
OVCAR-5 ovarian
  TGI: > 100 µM
HL-60(TB) leukemia
  TGI: > 100 µM
T-47D breast
  TGI: > 100 µM
MALME-3M melanoma
  TGI: > 100 µM
CCRF-CEM leukemia
  TGI: > 100 µM
HCT-116 colon
  TGI: > 100 µM
IGROV1 ovarian
  TGI: > 100 µM
TK-10 renal
  TGI: > 100 µM
SF-295 CNS
  TGI: > 100 µM
786-0 renal
  TGI: > 100 µM

## CN1CN(c2ccccc2)C2(CCN(CCc3csc4ccccc34)CC2)C1=O
HCT-15 colon
  TGI: 51.5 µM
OVCAR-5 ovarian
  TGI: 25.3 µM
HL-60(TB) leukemia
  TGI: 31.2 µM
T-47D breast
  TGI: 54.2 µM
MALME-3M melanoma
  TGI: 29.1 µM
CCRF-CEM leukemia
  TGI: 46.6 µM
K-562 leukemia
  TGI: 40.1 µM
HCT-116 colon
  TGI: 23.4 µM
IGROV1 ovarian
  TGI: 52.3 µM
TK-10 renal
  TGI: 34 µM
786-0 renal
  TGI: 30.5 µM

## CCOC(=O)CCC(NC(=O)c1ccc(N2CCN(c3c(C)nc(N)nc3N)CC2)cc1)C(=O)OCC (configuration not stated)
HCT-15 colon
  TGI: > 100 µM
OVCAR-4 ovarian
  TGI: > 100 µM
OVCAR-5 ovarian
  TGI: > 100 µM
T-47D breast
  TGI: > 100 µM
MALME-3M melanoma
  TGI: > 100 µM
CCRF-CEM leukemia
  TGI: 4.9 µM
K-562 leukemia
  TGI: 0.844 µM
HCT-116 colon
  TGI: > 100 µM
IGROV1 ovarian
  TGI: > 100 µM
TK-10 renal
  TGI: > 100 µM
SF-295 CNS
  TGI: > 100 µM
786-0 renal
  TGI: > 100 µM

## COC(=O)CCC12CCC(O1)c1ccccc12 (configuration not stated)
HCT-15 colon
  TGI: > 100 µM
OVCAR-4 ovarian
  TGI: > 100 µM
OVCAR-5 ovarian
  TGI: > 100 µM
HL-60(TB) leukemia
  TGI: > 100 µM
T-47D breast
  TGI: > 100 µM
CCRF-CEM leukemia
  TGI: > 100 µM
K-562 leukemia
  TGI: > 100 µM
HCT-116 colon
  TGI: > 100 µM
IGROV1 ovarian
  TGI: > 100 µM
TK-10 renal
  TGI: > 100 µM
SF-295 CNS
  TGI: > 100 µM
786-0 renal
  TGI: > 100 µM

## O=C(CC(C(=O)c1ccoc1)c1ccco1)c1ccco1 (configuration not stated)
HCT-15 colon
  TGI: > 100 µM
OVCAR-4 ovarian
  TGI: > 100 µM
OVCAR-5 ovarian
  TGI: > 100 µM
HL-60(TB) leukemia
  TGI: > 100 µM
T-47D breast
  TGI: > 100 µM
CCRF-CEM leukemia
  TGI: > 100 µM
K-562 leukemia
  TGI: > 100 µM
HCT-116 colon
  TGI: > 100 µM
IGROV1 ovarian
  TGI: > 100 µM
TK-10 renal
  TGI: > 100 µM
SF-295 CNS
  TGI: > 100 µM
786-0 renal
  TGI: > 100 µM

## COc1cc2c(c(OC)c1OC)-c1ccc(SC)cc1[C@H](OC(=O)c1ccccc1)CC2
HCT-15 colon
  TGI: > 40.6 µM
OVCAR-4 ovarian
  TGI: > 100 µM
OVCAR-5 ovarian
  TGI: > 100 µM
HL-60(TB) leukemia
  TGI: 0.487 µM
T-47D breast
  TGI: > 100 µM
CCRF-CEM leukemia
  TGI: > 100 µM
K-562 leukemia
  TGI: > 100 µM
HCT-116 colon
  TGI: 1.45 µM
IGROV1 ovarian
  TGI: > 100 µM
TK-10 renal
  TGI: > 100 µM
SF-295 CNS
  TGI: > 100 µM
786-0 renal
  TGI: > 100 µM

## COc1ccc(CCNC(=O)Cc2cc(OC)c(OC)cc2CO)cc1OC
HCT-15 colon
  TGI: > 100 µM
OVCAR-4 ovarian
  TGI: > 100 µM
OVCAR-5 ovarian
  TGI: > 100 µM
HL-60(TB) leukemia
  TGI: > 100 µM
T-47D breast
  TGI: > 100 µM
CCRF-CEM leukemia
  TGI: > 100 µM
K-562 leukemia
  TGI: > 100 µM
HCT-116 colon
  TGI: > 100 µM
IGROV1 ovarian
  TGI: > 100 µM
TK-10 renal
  TGI: > 100 µM
SF-295 CNS
  TGI: > 100 µM
786-0 renal
  TGI: > 100 µM

## C#C[C@]1(O)CC[C@H]2[C@@H]3CCc4cc(OC(=O)c5cccc6cc7ccccc7nc56)ccc4[C@H]3CC[C@@]21C
HCT-15 colon
  TGI: > 100 µM
OVCAR-4 ovarian
  TGI: > 100 µM
OVCAR-5 ovarian
  TGI: > 100 µM
HL-60(TB) leukemia
  TGI: > 100 µM
T-47D breast
  TGI: 34 µM
MALME-3M melanoma
  TGI: 34.7 µM
CCRF-CEM leukemia
  TGI: > 100 µM
K-562 leukemia
  TGI: > 100 µM
HCT-116 colon
  TGI: 80.1 µM
IGROV1 ovarian
  TGI: > 100 µM
786-0 renal
  TGI: 96.4 µM

## CNC(=O)c1[nH]cnc1/N=N/N(C)N
HCT-15 colon
  TGI: > 100 µM
OVCAR-4 ovarian
  TGI: > 100 µM
OVCAR-5 ovarian
  TGI: > 100 µM
T-47D breast
  TGI: > 100 µM
MALME-3M melanoma
  TGI: > 100 µM
K-562 leukemia
  TGI: > 100 µM
HCT-116 colon
  TGI: > 100 µM
IGROV1 ovarian
  TGI: > 100 µM
TK-10 renal
  TGI: > 100 µM
SF-295 CNS
  TGI: > 100 µM
786-0 renal
  TGI: > 100 µM

## CCC1C(c2cc(OC)c(OC)c(OC)c2)c2cc3c(cc2OC1N1CCOCC1)OCO3 (configuration not stated)
HCT-15 colon
  TGI: > 100 µM
OVCAR-4 ovarian
  TGI: 14.6 µM
OVCAR-5 ovarian
  TGI: 15.6 µM
T-47D breast
  TGI: 61.8 µM
MALME-3M melanoma
  TGI: 52.6 µM
HCT-116 colon
  TGI: 13.4 µM
IGROV1 ovarian
  TGI: 17.4 µM
SF-295 CNS
  TGI: 8.52 µM
786-0 renal
  TGI: 28.8 µM

## Clc1ccc(C2NN=C3c4ccccc4OCC32)cc1 (configuration not stated)
HCT-15 colon
  TGI: 13.5 µM
OVCAR-4 ovarian
  TGI: > 73.1 µM
OVCAR-5 ovarian
  TGI: > 100 µM
HL-60(TB) leukemia
  TGI: 11.9 µM
T-47D breast
  TGI: 54.3 µM
MALME-3M melanoma
  TGI: 23.1 µM
CCRF-CEM leukemia
  TGI: > 74.8 µM
K-562 leukemia
  TGI: > 22.9 µM
HCT-116 colon
  TGI: > 36.4 µM
IGROV1 ovarian
  TGI: 22.3 µM
TK-10 renal
  TGI: > 100 µM
786-0 renal
  TGI: 29.5 µM

## COc1cc(COC(=O)N2CCC2C(=O)O)c([N+](=O)[O-])cc1OC (configuration not stated)
HCT-15 colon
  TGI: > 100 µM
OVCAR-5 ovarian
  TGI: > 100 µM
HL-60(TB) leukemia
  TGI: > 100 µM
T-47D breast
  TGI: > 100 µM
MALME-3M melanoma
  TGI: > 100 µM
CCRF-CEM leukemia
  TGI: > 100 µM
K-562 leukemia
  TGI: > 100 µM
HCT-116 colon
  TGI: > 100 µM
IGROV1 ovarian
  TGI: > 100 µM
TK-10 renal
  TGI: > 100 µM
SF-295 CNS
  TGI: > 100 µM
786-0 renal
  TGI: > 100 µM

## Cc1cccc(NC(=S)N=Nc2c(O)[nH]c3ccccc23)c1
HCT-15 colon
  TGI: > 100 µM
OVCAR-4 ovarian
  TGI: > 100 µM
OVCAR-5 ovarian
  TGI: > 100 µM
HL-60(TB) leukemia
  TGI: > 100 µM
T-47D breast
  TGI: > 100 µM
MALME-3M melanoma
  TGI: > 100 µM
CCRF-CEM leukemia
  TGI: > 100 µM
K-562 leukemia
  TGI: > 100 µM
HCT-116 colon
  TGI: > 100 µM
IGROV1 ovarian
  TGI: > 100 µM
SF-295 CNS
  TGI: > 100 µM
786-0 renal
  TGI: > 100 µM
